According to ChEMBL document CHEMBL3639238, “Hybrid cholinesterase inhibitors” (2014):

What was measured:
Acetylcholinesterase = Acetylcholinesterase (Homo sapiens, UniProt P22303); assay: (§1) Inhibition Assay: The biological activity of the compounds of general formula (I) towards the cholinesterase inhibition was evaluated using Ellman's method (Ellman, G. L.; Courtney, K. D.; Anders, B.; Featherstone, R. M. Biochem. Pharmacol. 1961, 7, 88-95).This method of evaluation of the cholinesterase inhibitors activity is based on the fact that acetyl/butyrylcholinesterase interacts with the inhibitor, which prevents the acetyl/butyrylcholine hydrolysis. The inhibitor causes the enzyme activity drop which is dependent on the inhibitor concentration. The enzyme unbound with the inhibitor is able to hydrolyze acetyl/butyrylthiocholine (ASCh/BSCh). The amount of the hydrolyzed ASCh/BSCh is measured indirectly, by quantification of the product of its reaction with DTNB (5,5â²-dithio-bis-2-nitrobenzoic acid). Ellman's method relies therefore on the spectrophotometric quantification of product of the reaction between […] and DTNB.
Chain of Acetylcholinesterase (P22303 whole entry): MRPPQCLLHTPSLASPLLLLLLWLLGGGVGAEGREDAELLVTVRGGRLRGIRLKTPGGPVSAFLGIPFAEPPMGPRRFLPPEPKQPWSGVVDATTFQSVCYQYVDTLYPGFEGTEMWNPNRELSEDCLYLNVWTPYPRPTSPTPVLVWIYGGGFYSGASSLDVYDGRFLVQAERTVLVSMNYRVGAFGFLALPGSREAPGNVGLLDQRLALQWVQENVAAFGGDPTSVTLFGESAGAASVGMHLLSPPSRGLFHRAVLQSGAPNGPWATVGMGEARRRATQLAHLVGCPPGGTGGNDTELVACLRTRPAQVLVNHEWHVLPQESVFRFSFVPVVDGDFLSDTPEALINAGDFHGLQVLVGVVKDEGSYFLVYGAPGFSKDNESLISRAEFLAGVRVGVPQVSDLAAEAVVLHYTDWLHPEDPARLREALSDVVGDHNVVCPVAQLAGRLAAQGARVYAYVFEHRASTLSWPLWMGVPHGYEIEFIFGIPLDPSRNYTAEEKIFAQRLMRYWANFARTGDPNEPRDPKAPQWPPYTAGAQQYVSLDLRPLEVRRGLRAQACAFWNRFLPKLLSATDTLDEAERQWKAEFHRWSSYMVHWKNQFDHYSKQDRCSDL

Cholinesterase = Cholinesterase (Homo sapiens, UniProt P06276); assay: as §1
Chain of Cholinesterase (P06276 whole entry): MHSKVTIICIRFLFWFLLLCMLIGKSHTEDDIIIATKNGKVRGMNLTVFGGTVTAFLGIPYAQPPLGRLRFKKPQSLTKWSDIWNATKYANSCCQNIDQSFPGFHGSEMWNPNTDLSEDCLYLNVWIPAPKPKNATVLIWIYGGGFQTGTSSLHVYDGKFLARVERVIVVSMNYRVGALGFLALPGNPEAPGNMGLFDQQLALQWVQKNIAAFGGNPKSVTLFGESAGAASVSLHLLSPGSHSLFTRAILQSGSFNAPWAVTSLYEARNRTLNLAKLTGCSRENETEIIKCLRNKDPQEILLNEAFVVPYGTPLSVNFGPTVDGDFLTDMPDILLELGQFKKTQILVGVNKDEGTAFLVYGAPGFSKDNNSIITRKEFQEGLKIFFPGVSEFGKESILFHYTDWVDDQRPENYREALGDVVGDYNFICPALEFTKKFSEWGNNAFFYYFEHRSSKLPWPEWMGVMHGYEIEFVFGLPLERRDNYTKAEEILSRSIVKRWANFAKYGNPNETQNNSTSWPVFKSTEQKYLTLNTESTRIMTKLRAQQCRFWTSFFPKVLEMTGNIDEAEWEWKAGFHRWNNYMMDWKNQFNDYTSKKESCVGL

CC(=O)NCCc1c[nH]c2ccc(OC(=O)NCCCCCCCNc3c4c(nc5cc(Cl)ccc35)CCCC4)cc12
IC50 (Acetylcholinesterase): 7.7 nM | IC50 (Cholinesterase): 0.38 nM

CC(=O)NCCc1c[nH]c2ccc(OC(=O)NCCNc3c4c(nc5cc(Cl)ccc35)CCCC4)cc12
IC50 (Acetylcholinesterase): 20.1 nM | IC50 (Cholinesterase): 34.5 nM

CC(=O)NCCc1c[nH]c2ccc(OC(=O)NCCCCCCCNc3c4c(nc5ccc(Cl)cc35)CCCC4)cc12
IC50 (Acetylcholinesterase): 39.9 nM | IC50 (Cholinesterase): 0.88 nM

CC(=O)NCCc1c[nH]c2ccc(OC(=O)NCCNc3c4c(nc5ccc(Cl)cc35)CCCC4)cc12
IC50 (Acetylcholinesterase): 3280 nM | IC50 (Cholinesterase): 8.2 nM

CC(=O)NCCc1c[nH]c2ccc(OC(=O)NCCCCCCCCCCNc3c4c(nc5cc(Cl)ccc35)CCCC4)cc12
IC50 (Acetylcholinesterase): 8.1 nM | IC50 (Cholinesterase): 1.2 nM

CC(=O)NCCc1c[nH]c2ccc(OC(=O)NCCCCCCCCCCCCNc3c4c(nc5cc(Cl)ccc35)CCCC4)cc12
IC50 (Acetylcholinesterase): 25.6 nM | IC50 (Cholinesterase): 1.31 nM
